Reference: ChEMBL document CHEMBL1140470, “Synthesis and in vitro evaluation of a selective antagonist and the corresponding radioligand for the prostaglandin D2 receptor CRTH2” (Bioorg Med Chem Lett, 2007)

Key:
CRTH2 (Homo sapiens) = assay: Selectivity for CRTH2 over DP and TP receptors
[1] = target: T1, Prostaglandin D2 receptor 2 (Homo sapiens, UniProt Q9Y5Y4); assay: Displacement of [3H]PGD2 from human CRTH2 receptor
T1 sequence (Q9Y5Y4 whole entry): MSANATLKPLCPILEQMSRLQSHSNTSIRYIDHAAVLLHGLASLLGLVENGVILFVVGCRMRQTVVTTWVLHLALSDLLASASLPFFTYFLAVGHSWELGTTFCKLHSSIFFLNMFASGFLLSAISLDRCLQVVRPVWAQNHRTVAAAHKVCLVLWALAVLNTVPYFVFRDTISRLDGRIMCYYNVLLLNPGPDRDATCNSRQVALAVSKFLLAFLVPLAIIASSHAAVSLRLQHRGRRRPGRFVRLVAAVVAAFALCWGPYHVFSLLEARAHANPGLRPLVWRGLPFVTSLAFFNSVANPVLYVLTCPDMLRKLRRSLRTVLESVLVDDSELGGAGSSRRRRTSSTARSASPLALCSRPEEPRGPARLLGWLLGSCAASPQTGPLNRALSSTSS

[2] = target: T1, Prostaglandin D2 receptor 2; assay: Antagonist activity at human CRTH2 receptor assessed as inhibition of PGD2-induced signaling by inositol-phosphate assay; type: functional
[3] = target: T2, Prostaglandin D2 receptor 2 (Homo sapiens) (UniProt Q9Y5Y4); assay: (§1) Displacement of [3H]TRQ11238 from human CRTH2 receptor expressed in HEK293 cells; type: cell-based; details: tested as the 3H-labelled form
T2 sequence (whole entry): T1 sequence (Q9Y5Y4 whole entry)

[4] = target: T1, Prostaglandin D2 receptor 2; assay: as §1; type: cell-based

Structure (SMILES)	Selectivity ratio (CRTH2 (Homo sapiens))	Ki [1] [nM]	IC50 [2] [nM]	Bmax [3] [fmol/mg]	Kd [4] [nM]
O=C(O)Cn1cc(CCN(Cc2ccccc2)S(=O)(=O)c2ccc(F)cc2)c2ccccc21	> 1000	0.631	3.98	2790	–
[3H]c1cc([3H])cc(CN(CCc2cn(CC(=O)O)c3ccccc23)S(=O)(=O)c2ccc(F)cc2)c1	–	–	–	–	1
